This is an account of results in patent publication US10626100B2, “Selective HDAC6 inhibitors” (The Trustees of Columbia University in the City of New York, priority 2013, dated 2020).

Data set [1] relates to acetylated alpha-tubulin and histones in CWR22 tumors and spleen. The experiment in a line: Acetylated lysine patterns in CWR22 tumors and spleen. In kind it is in vivo, nude mice. The text has this:
Tumors and spleen are removed from the animals, and histones and proteins are extracted for the detection of acetylated lysine patterns.

For the next data set, the target named is T1, HDAC6 (Homo sapiens, UniProt Q9UBN7).
T1 sequence (Q9UBN7 1-1215): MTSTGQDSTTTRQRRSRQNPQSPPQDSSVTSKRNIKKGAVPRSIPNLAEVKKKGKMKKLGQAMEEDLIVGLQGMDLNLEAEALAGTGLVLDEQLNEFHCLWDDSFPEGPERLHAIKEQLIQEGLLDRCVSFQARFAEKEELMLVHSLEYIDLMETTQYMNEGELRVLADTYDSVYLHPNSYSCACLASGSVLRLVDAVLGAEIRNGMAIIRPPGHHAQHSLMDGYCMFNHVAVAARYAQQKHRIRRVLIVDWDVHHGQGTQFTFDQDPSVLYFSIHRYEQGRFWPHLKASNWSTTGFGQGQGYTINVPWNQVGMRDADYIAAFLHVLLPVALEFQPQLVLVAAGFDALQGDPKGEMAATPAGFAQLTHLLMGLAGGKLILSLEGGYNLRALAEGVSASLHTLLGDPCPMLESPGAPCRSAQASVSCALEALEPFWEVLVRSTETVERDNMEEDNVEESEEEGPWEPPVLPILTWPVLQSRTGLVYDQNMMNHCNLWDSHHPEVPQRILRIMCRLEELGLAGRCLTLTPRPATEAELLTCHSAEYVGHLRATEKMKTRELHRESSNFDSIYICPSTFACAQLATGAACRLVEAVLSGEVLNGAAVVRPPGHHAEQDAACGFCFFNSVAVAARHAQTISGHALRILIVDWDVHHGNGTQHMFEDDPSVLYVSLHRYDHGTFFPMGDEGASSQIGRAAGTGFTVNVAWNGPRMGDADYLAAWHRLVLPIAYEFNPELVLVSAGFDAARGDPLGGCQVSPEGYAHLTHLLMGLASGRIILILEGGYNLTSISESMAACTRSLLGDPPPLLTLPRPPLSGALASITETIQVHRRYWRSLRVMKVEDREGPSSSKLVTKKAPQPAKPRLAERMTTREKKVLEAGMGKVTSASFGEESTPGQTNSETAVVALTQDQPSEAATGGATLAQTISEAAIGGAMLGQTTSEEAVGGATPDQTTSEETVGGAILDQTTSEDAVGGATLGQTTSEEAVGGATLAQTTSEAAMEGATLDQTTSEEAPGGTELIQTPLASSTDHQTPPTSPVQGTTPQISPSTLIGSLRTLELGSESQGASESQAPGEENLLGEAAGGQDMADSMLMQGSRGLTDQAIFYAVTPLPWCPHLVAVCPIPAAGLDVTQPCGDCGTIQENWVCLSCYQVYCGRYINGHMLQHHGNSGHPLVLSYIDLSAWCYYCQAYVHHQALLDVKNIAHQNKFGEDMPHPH
Put plainly: Inhibition of recombinant HDAC6.

A further data set relates to HFS (normal) cells. The experiment in a line: Combination with anti-cancer agents in HFS cells. Type of data set: cell-based, human. The following applies: compound 8 alone or in combination with etoposide, paclitaxel, or SAHA, 72 h.
The subject of data set [2] is acetylated alpha-tubulin and acetylated histone H3 in LNCaP (human prostate cancer cells). The experiment in a line: Accumulation of acetylated proteins in LNCaP cells (western blot). In kind it is cell-based. Conditions: transformed cells, concentrations as high as 16 μM.
In data set [3] the test system is HFS (human foreskin fibroblast) cells. Put plainly: Cell growth and viability of HFS normal cells. Type of data set: cell-based. The protocol:
FIG. 3. Cell growth of HFS (normal) and LNCaP (transformed) cells treated with compound 8 over 72 h.
FIG. 4. Cell viability of HFS (normal) and LNCaP (transformed) cells treated with compound 8 over 72 h.
Recombinant HDAC1 and HDAC6 are used to evaluate the selective inhibitory potency of each compound. Cell based assays: Normal cells (Human Foreskin Fibroblast cells), LNCaP (human prostate cancer cells), MCF-7 (human breast cancer cells, A549 (human adenocarcinoma of lung cells) and ARP-1 (human multiple myeloma cells) are used in these assays. Cells were cultured for up to 72 hr without and with the potential HDAC6-selective inhibitor. SAHA was used as a control. Cell number and cell viability were determined by enumeration. Proteins were extracted from cells and assayed for accumulation of acetylated tubulin and acetylated histones. All methods are described in Namdar et al., PNAS, 2010, 107:20003-8. In vivo animal studies: Potential HDAC6 inhibitor compounds are further assayed by administration to mice for up to 5 days with daily injections. Animals are sacrificed and tissues are analyzed for accumulation of acetylated tubulin and acetylated histones.
The effect of compound 8 on the cell growth and viability of normal (HFS, human foreskin fibroblast) and transformed (LNCaP, human prostate adenocarcinoma) cells cultured with 8, 16, 32 or 64 μM HPB for up to 72 h was evaluated.

Another data set is described as follows: Mouse toxicity study. Type of data set: in vivo. The following applies: mice, intraperitoneal, daily for 5 days, 100, 200, or 300 mg/kg. The protocol:
FIG. 6. Average weight of immune-deficient mice treated daily by 30 μL intraperitoneal injection with indicated doses of compound 8. DMSO is the vehicle control.
Toxicity of compound 8 in mice was determined. […] Mice were intraperitoneally injected daily for 5 days with 100, 200, or 300 mg/kg compound 8. […] The effects of compound 8 on the acetylation of alpha-tubulin and histones in the spleen isolated from mice treated with compound 8 were analyzed at three time points after the administration of the drug.

`O=C(NO)c1ccc(CN(CCO)C(=O)Cc2ccccc2)cc1` [Compound 8, N-hydroxy-4-((N-(2-hydroxyethyl)-2-phenylacetamido)methyl) benzamide]: the “accumulation of acetylated alpha-tubulin in CWR22 tumors and spleen, combination with etoposide” value in data set [1] (combination of compound 8 and etoposide) is on record as “increased accumulation of acetylated alpha-tubulin”. Further, the “accumulation of histones in tumors, combination with etoposide” value in data set [1] (combination of etoposide and compound 8) is “Increased levels of accumulation of histones”. Moreover, the “accumulation of histones in tumors, single agent” value in data set [1] (mice injected with compound 8 alone or etoposide) is given as “not with compound 8 alone”. For the same compound, the “accumulation of acetylated alpha-tubulin in CWR22 tumors and spleen, single agent” value in data set [1] (mice treated with compound 8 or etoposide) is reported as “increased accumulation of acetylated alpha-tubulin”. For the same compound, the “potency as inhibitor of HDAC6 compared with SAHA” value on HDAC6 is recorded as “one hundred fold more potent”. Moreover, the IC50 (in general, the concentration needed to halve the response being measured) on HDAC6 (read-out: IC50 (nM) HCAC6, recombinant HDAC6) amounted to 31 nM. Moreover, the cell growth result was “inhibits cell growth” in the data set on HFS (normal) cells; “inhibited cell growth of normal and transformed cells in a concentration dependent manner” in data set [3] (HFS, 8, 16, 32 or 64 μM, up to 72 h, FIG. 3). The cell viability entry with HFS (normal) cells was “does not induce loss of cell viability”. Besides, the “accumulation of acetylated PRX” value in data set [2] is “selectively induced accumulation of acetylated alpha-tubulin and acetylated PRX”. For the same compound, the “cell death / cell viability” value in data set [3] (HFS, 8, 16, 32 or 64 μM, up to 72 h, FIG. 4) is given as “did not induce cell death of normal or transformed cells”. For the same compound, the normal cell death result in data set [3] (concentrations ≤16 μM) is listed as “do not induce normal cell death”. Further, the tolerability in animals result in the data set “Mouse toxicity study” is on record as “well tolerated”. Further, the weight loss entry in the data set “Mouse toxicity study” (FIG. 6) is given as “no weight loss”.
